{
  "source": "paper PMC6712002",
  "about": "“Comprehensive in vitro characterization of PD-L1 small molecule inhibitors” (Scientific Reports, 2019)",
  "key": {"mouse splenocytes": {"tested_on": "mouse splenocytes", "design": "method as in earlier work", "details": "CFSE proliferation assay with recombinant PD-L1; cited from earlier work"}, "[1]": {"tested_on": "peripheral blood mononuclear cells (PBMCs)", "assay_type": "cell-based, human"}, "[2]": {"tested_on": "PD-1/NFAT reporter Jurkat cells co-cultured with TCR activator/PD-L1-CHO cells", "experiment": "Bioluminescent PD-1/PD-L1 cell-based assay (NFAT luciferase reporter)"}, "PD-1/PD-L1 binding [3]": {"target": "T1, PD-1/PD-L1 binding (Homo sapiens, UniProt Q9NZQ7)", "experiment": "PD-1/PD-L1 ELISA competition assay, reverse configuration (PD-1 coated, biotinylated PD-L1)", "assay_type": "biochemical", "details": "biotin tagged PD-L1"}, "Jurkat cells": {"tested_on": "Jurkat cells", "experiment": "Jurkat cell viability, CellTiter-Glo", "assay_type": "cell-based", "details": "24 h; for effect on cell viability: concentrations tested; for concentration significantly decreasing cell viability: vs DMSO control"}, "PD-L1 [4]": {"target": "T2, PD-L1 (Homo sapiens, UniProt Q9NZQ7)", "T2 construct": "human PD-L1 (residues 18–134) was cloned into pET21b vector; made in house", "T2 sequence (Q9NZQ7 18-134)": "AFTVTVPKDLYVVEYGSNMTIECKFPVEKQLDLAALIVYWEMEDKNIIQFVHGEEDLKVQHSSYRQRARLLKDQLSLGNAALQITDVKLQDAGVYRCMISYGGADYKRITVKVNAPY", "experiment": "Differential scanning fluorimetry (DSF) of PD-L1", "assay_type": "binding", "details": "PD-L1 10 µM, compound 50 µM"}, "human PD-1 protein": {"target": "human PD-1 protein (Homo sapiens, UniProt Q15116)", "sequence (Q15116 25-288)": "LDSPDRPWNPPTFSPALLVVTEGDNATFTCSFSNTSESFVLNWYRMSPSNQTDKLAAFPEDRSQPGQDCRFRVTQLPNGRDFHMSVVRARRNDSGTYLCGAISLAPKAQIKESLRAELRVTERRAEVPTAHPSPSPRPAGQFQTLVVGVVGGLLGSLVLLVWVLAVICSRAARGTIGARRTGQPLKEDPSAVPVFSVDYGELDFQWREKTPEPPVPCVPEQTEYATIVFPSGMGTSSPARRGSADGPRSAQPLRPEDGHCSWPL", "experiment": "DSF of PD-1", "assay_type": "binding"}, "PD-L1 [5]": {"target": "T2, PD-L1", "experiment": "Microscale thermophoresis (MST) binding to labeled PD-L1", "details": "labeled PD-L1 60 nM"}, "PD-1/PD-L1 binding [6]": {"target": "T1, PD-1/PD-L1 binding", "experiment": "PD-1/PD-L1 ELISA competition assay (PD-L1 coated, biotinylated PD-1)", "assay_type": "biochemical", "design": "purchased R&D Systems (Fc-PD-L1); Acro Biosystems (biotinylated PD-1)"}, "Fc-PD-L1": {"target": "Fc-PD-L1 (Homo sapiens, UniProt Q9NZQ7)", "sequence (Q9NZQ7 19-238 limits assumed)": "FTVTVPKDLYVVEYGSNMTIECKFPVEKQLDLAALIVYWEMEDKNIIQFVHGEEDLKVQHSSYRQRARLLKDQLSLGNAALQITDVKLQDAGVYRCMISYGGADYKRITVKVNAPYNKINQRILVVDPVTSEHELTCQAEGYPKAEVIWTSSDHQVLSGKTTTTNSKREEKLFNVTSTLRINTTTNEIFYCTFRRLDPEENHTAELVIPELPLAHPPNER", "experiment": "SPR binding to captured Fc-PD-L1", "details": "Fc-PD-L1 captured on Protein A chip, 25 °C"}, "HepG2 cells": {"tested_on": "HepG2 cells", "experiment": "HepG2 cell viability, CCK-8 assay", "assay_type": "cell-based, human", "details": "HepG2, 24 h; for effect on cell viability: various concentrations tested; for concentration significantly reducing cell viability / concentration without significant effect on cell viability: CCK-8", "description": "We also evaluated the acute cytotoxicity of the BMS and Aurigene compounds by testing the effects of compound treatment on the viability of HepG2 cell line. […] The purpose of using HepG2 cells, thus, would allow for evaluation of the parent molecules and potential metabolites for cytotoxicity. The cells were treated with the compounds for 24 h and then the cell viability was assessed by the CCK-8 assay (Fig. 7C).\nThe acute cytotoxicity of the test compounds was also evaluated by administering the test compounds to human hepatoma (HepG2) cells and assessing their viability (metabolic viability) using the CCK-8 assay (based on WST-8). HepG2 cells are commonly used in the early screening stages for new chemical entities, and the CCK-8 assay has been well established as a sensitive and reliable indicator for cellular metabolic activity (viability) for this purpose. HepG2 cells were obtained from ATCC (HB-8065; Manassas, VA) and maintained in DMEM culture medium in a water-jacketed incubator (5% CO2, 37 °C). […] At this time point, cells were treated with WST-8 based on the manufacturer’s protocol (CCK-8 kit, Dojindo Molecular Technologies, Rockville, MD). Cell viability calculations were also carried out according to the manufacturer’s protocol, which included accounting for potential interference from test compounds, and comparisons to appropriate controls. GraphPad Prism was used for data analysis and graphical representation."}, "PD-L1 [7]": {"target": "T2, PD-L1", "experiment": "1D NMR STD and WaterLOGSY binding", "details": "12 µM PD-L1, 200 µM compound", "description": "In addition, we also employed 1D NMR-based methods, saturation transfer difference (STD) and WaterLOGSY techniques, to unambiguously rule-out the binding of Aurigene-1 to PD-L1 protein. STD and WaterLOGSY are popular ligand-based approaches to detect the binding of protein-protein inhibitors.\nNMR samples contained 12 µM of protein, 200 µM of compound in 1x PBS (phosphate-buffered saline buffer, pH 7.5) and 0.25 mM 2,2-dimethyl-2-silapentane-5-sulfonate-d6 sodium salt (DSS-d6) as an NMR internal reference in 95/5% H2O/D2O or 100% D2O. […] NMR spectroscopy was performed at the Nanuc NMR Centre on a 2.2 K pumped-800 MHz Oxford magnet updated to a Bruker Neo-Advance IV console equipped with a 5 mm cryoprobe and SampleJet robotics.\nFig. S3: STD and WaterLOGSY experiments of PD-L1 binding to Aurigene-1. Blue - 1D spectrum of Aurigene-1, Red and Green -STD and WaterLOGSY spectra respectively of 12 μM of PD-L1 with 200 μM of Aurigene-1"}, "CHO cells": {"tested_on": "CHO cells", "experiment": "CHO cell viability, CellTiter-Glo", "details": "24 h; for concentration significantly reducing cell viability: vs DMSO control"}, "Fc-B7-1": {"target": "T3, Fc-B7-1 (Homo sapiens, UniProt P33681)", "T3 sequence (P33681 35-242 limits assumed)": "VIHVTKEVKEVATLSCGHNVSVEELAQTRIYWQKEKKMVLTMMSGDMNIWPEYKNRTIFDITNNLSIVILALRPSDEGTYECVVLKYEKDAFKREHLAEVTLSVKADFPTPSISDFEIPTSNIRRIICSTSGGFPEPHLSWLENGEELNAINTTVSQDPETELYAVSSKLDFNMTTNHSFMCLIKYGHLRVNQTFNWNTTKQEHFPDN", "experiment": "SPR binding to captured Fc-B7-1 (specificity)"}, "[8]": {"tested_on": "PD-1 negative Jurkat T cells", "experiment": "Counter-screen NFAT luciferase reporter in PD-1 negative Jurkat T cells", "assay_type": "cell-based", "details": "24.5 μM and 49 μM"}, "PD-1/PD-L1": {"tested_on": "PD-1/PD-L1", "details": "read-out: IC50 (HTRF); original disclosure; cited from earlier work"}, "PD-1/PD-L1 interface": {"target": "PD-1/PD-L1 interface (Homo sapiens, UniProt Q9NZQ7)", "sequence (Q9NZQ7 19-290)": "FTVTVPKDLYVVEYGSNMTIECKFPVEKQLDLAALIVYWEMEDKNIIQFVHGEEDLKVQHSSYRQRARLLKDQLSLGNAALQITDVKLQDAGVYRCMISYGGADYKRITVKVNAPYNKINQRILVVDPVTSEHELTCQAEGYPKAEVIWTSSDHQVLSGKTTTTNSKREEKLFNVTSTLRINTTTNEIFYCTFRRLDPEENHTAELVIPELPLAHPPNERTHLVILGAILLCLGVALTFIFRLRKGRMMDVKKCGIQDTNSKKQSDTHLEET", "experiment": "Binding to the PD-1/PD-L1 interface (method not given)"}, "[9]": {"tested_on": "peripheral blood mononuclear cells (PBMCs)", "experiment": "IFN-γ production by SEB-stimulated PBMCs (ELISA)", "assay_type": "cell-based, human"}},
  "note": "“Also recorded” adds a separate entry of the source. Bridge positions count the residues as written; N and C are the ends. Square brackets hold non-standard residues; d marks the D form. Peptide text beside a SMILES is read from it. NMeNle = CCCC[C@H](NC)C(=O)O; NMeA = CN[C@@H](C)C(=O)O",
  "data": [
    {"compound": "CC(O)[C@H](NC(=O)N[C@@H](CC(N)=O)c1nc([C@@H](N)CO)no1)C(=O)O", "note": "(some centres unmarked) [Aurigene-1]", "values": [
      {"measurement": "rescue of mouse splenocyte proliferation", "setting": "mouse splenocytes", "value": 97, "unit": "%"},
      {"measurement": "effect on IL-2 production", "setting": "[1]", "value": "cannot enhance IL-2 production"},
      {"measurement": "NFAT activity", "setting": "[2]; 55.5 μM, 27.8 μM, 13.9 μM, 2.8 μM and 1.4 μM", "value": "none of these concentrations facilitated NFAT activity"},
      {"measurement": "inhibition of PD-1/PD-L1 binding, reverse configuration", "setting": "PD-1/PD-L1 binding [3]", "value": "did not show inhibition of PD-1/PD-L1 binding"},
      {"measurement": "effect on cell viability", "setting": "Jurkat cells", "value": "did not show any effect on the cell viability"},
      {"measurement": "shift of Tm of PD-L1", "setting": "PD-L1 [4]", "value": "0.7 ± 0.1", "unit": "°C"},
      {"measurement": "thermal stability of PD-1 protein", "setting": "human PD-1 protein", "value": "did not increase the thermal stability of PD-1 protein; also recorded: did not induce thermal stability to the human PD-1 protein"},
      {"measurement": "binding to PD-L1 (MST fluorescence response)", "setting": "PD-L1 [5]", "value": "no change in fluorescence"},
      {"measurement": "inhibition of PD-1/PD-L1 binding", "setting": "PD-1/PD-L1 binding [6]; 7.8 µM to 500 µM", "value": "did not inhibit the PD-1/PD-L1 binding"},
      {"measurement": "Rmax (maximum binding response)", "setting": "Fc-PD-L1", "value": "0.78 ± 0.36", "unit": "RU"},
      {"measurement": "effect on cell viability", "setting": "HepG2 cells", "value": "did not show any effects on the cell viability"},
      {"measurement": "binding to PD-L1 (STD, WaterLOGSY NMR)", "setting": "PD-L1 [7]", "value": "does not bind to PD-L1 protein"}
    ]},
    {"compound": "COc1cc(OCc2cccc(-c3ccccc3)c2C)cc(OC)c1CNCCO", "note": "[BMS-103]", "values": [
      {"measurement": "concentration significantly reducing cell viability", "setting": "CHO cells", "value": "≥ 12.2", "unit": "µM"},
      {"measurement": "IL-2 production vs positive control", "setting": "[1]", "value": "significantly lower levels of IL-2 than the positive control"},
      {"measurement": "concentration completely abolishing cell viability", "setting": "Jurkat cells", "value": "≥ 2.4", "unit": "µM"},
      {"measurement": "concentration significantly decreasing cell viability", "setting": "Jurkat cells", "value": 0.4, "unit": "µM"},
      {"measurement": "binding with captured Fc-B7-1", "setting": "Fc-B7-1", "value": "None of the BMS inhibitors (BMSpep-57, BMS-103 and BMS-142) showed binding"},
      {"measurement": "luminescence of PD-1 negative Jurkat cells", "setting": "[8]", "value": "substantially low"},
      {"measurement": "concentration significantly reducing cell viability", "setting": "HepG2 cells", "value": "≥ 12.2", "unit": "µM"},
      {"measurement": "concentration without significant effect on cell viability", "setting": "HepG2 cells", "value": "up to 2.4 µM"}
    ]},
    {"compound": "COc1cc(OCc2cccc(-c3ccccc3)c2C#N)cc(OC)c1CNCCO", "note": "[BMS-142]", "values": [
      {"measurement": "concentration without any effect on cell viability", "setting": "CHO cells", "value": "up to 2.4 µM"},
      {"measurement": "concentration significantly reducing cell viability", "setting": "CHO cells", "value": "≥ 12", "unit": "µM"},
      {"measurement": "NFAT activity vs cells only", "setting": "[2]; 12.3 μM, 2.4 μM and […]", "value": "no change in NFAT activity"},
      {"measurement": "NFAT activity (interaction with PD-1/PD-L1)", "setting": "[2]; 24 µM and 48 µM", "value": "sometimes interacted weakly with PD-1/PD-L1, although this was not statistically significant"},
      {"measurement": "concentration without any effect on cell viability", "setting": "Jurkat cells", "value": "up to 2.4 µM"},
      {"measurement": "concentration significantly decreasing cell viability", "setting": "Jurkat cells", "value": "≥ 12", "unit": "µM"},
      {"measurement": "binding with captured Fc-B7-1", "setting": "Fc-B7-1", "value": "None of the BMS inhibitors (BMSpep-57, BMS-103 and BMS-142) showed binding"},
      {"measurement": "IC50", "setting": "PD-1/PD-L1", "value": "6 to 100", "unit": "nM"},
      {"measurement": "concentration significantly reducing cell viability", "setting": "HepG2 cells", "value": "≥ 48", "unit": "µM"}
    ]},
    {"compound": "CCCC[C@H]1C(=O)N(C)[C@@H](CCCC)C(=O)N[C@@H](CCCNC(=N)N)C(=O)N[C@H](C(=O)NCC(N)=O)CSCC(=O)N[C@@H](Cc2ccccc2)C(=O)N(C)[C@@H](C)C(=O)N[C@@H](CC(N)=O)C(=O)N2CCC[C@H]2C(=O)N[C@@H](Cc2cnc[nH]2)C(=O)N[C@@H](CC(C)C)C(=O)N[C@@H](CO)C(=O)N[C@@H](Cc2c[nH]c3ccccc23)C(=O)N[C@@H](CO)C(=O)N[C@@H](Cc2c[nH]c3ccccc23)C(=O)N1C", "note": "[BMSpep-57] ({CH2CO}-F[NMeA]NPHLSWSW[NMeNle][NMeNle]RCG-NH2; thioether N-14)", "values": [
      {"measurement": "effect on cell viability", "setting": "Jurkat cells", "value": "did not show any effect on the cell viability"},
      {"measurement": "effect on cell viability", "setting": "HepG2 cells", "value": "did not show any effects on the cell viability"}
    ]},
    {"compound": "CCCC[C@H]1C(=O)N(C)[C@@H](CCCC)C(=O)N[C@@H](CCCNC(=N)N)C(=O)N[C@H](C(=O)NCC(N)=O)CSCC(=O)N[C@@H](Cc2ccccc2)C(=O)N(C)[C@@H](C)C(=O)N[C@@H](CC(N)=O)C(=O)N2CCC[C@H]2C(=O)N[C@@H](Cc2c[nH]cn2)C(=O)N[C@@H](CC(C)C)C(=O)N[C@@H](CO)C(=O)N[C@@H](Cc2c[nH]c3ccccc23)C(=O)N[C@@H](CO)C(=O)N[C@@H](Cc2c[nH]c3ccccc23)C(=O)N1C", "note": "[BMSpep-57] ({CH2CO}-F[NMeA]NPHLSWSW[NMeNle][NMeNle]RCG-NH2; thioether N-14; N-terminus and C-terminus assumed)", "values": [
      {"measurement": "inhibition at 0.3 µM", "setting": "PD-1/PD-L1 binding [6]; at 300 nM", "value": 98.1, "unit": "%"}
    ]},
    {"compound": "Cc1ccc2ccccc2c1CN1CCN(c2c([N+](=O)[O-])c(=O)n(C)c3ccccc23)CC1", "note": "[Compound A]", "values": [
      {"measurement": "binding to the PD-1/PD-L1 interface", "setting": "PD-1/PD-L1 interface", "value": "did not bind to the PD-1/PD-L1 interface"},
      {"measurement": "concentration without significant effect on cell viability", "setting": "HepG2 cells", "value": "≤ 90", "unit": "µM"},
      {"measurement": "fold IFN-γ production vs untreated cells", "setting": "[9]", "value": "approximately 1.2 fold"}
    ]}
  ]
}
